# Data as given in patent publication US10988459B2 (priority 2015, dated 2021).
# pKi: −log10 of the molar value.
# Target: human RIP1 kinase domain (2-375) (Homo sapiens (Human), UniProt Q13546)
# Experiment: biochemical
# Format: biochemical
# Details: Table 1; apparent Ki (Morrison tight-binding fit); 50 nM RIP1 kinase domain, 50 uM ATP, 2 hours incubation; read-out: RIP1 Ki
# Method in brief: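 Ki^app comes from Morrison tight-binding fits of fractional activity versus compound concentration. Activity was read as ADP production, via tracer displacement lowering fluorescence polarization (633 nm laser). Conditions: 2 h, 50 nM insect-cell-expressed enzyme, 50 uM ATP, 30 mM MgCl2, 1 mM DTT, 0.5% DMSO, pH 7.5 Hepes.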
# Sequence of human RIP1 kinase domain (2-375) (Q13546 2-375): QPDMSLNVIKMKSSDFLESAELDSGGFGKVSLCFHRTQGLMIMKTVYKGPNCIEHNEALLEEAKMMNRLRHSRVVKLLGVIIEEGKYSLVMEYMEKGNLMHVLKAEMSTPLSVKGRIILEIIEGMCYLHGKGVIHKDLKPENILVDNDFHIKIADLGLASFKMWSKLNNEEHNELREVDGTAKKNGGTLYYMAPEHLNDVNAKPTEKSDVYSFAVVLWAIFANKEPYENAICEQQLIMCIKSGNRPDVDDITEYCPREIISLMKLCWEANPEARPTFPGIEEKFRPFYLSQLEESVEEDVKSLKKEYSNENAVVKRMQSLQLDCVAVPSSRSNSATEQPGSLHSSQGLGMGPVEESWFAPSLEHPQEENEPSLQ
row,Structure (SMILES),pKi
1,"C[C@@H]1CCc2onc(C(=O)N[C@H]3COc4ccccc4N(C)C3=O)c2C1 [Example 70, (R)-5-methyl-N-((S)-5-methyl-4-oxo-2,3,4,5-tetrahydrobenzo[b][l,4]oxazepin-3-yl)-4,5,6,7-tetrahydrobenzo[d]isoxazole-3-carboxamide]",6.66
2,"O=C(N[C@H]1CCc2cc(Cl)ccc2NC1=O)c1n[nH]c2c1CCC2 [Example 49, (S)-N-(7-chloro-2-oxo-2,3,4,5-tetrahydro-1H-benzo[b]azepin-3-yl)-1,4,5,6-tetrahydrocyclopenta[c]pyrazole-3-carboxamide]",5.12
3,"CCC1CCc2n[nH]c(C(=O)N[C@H]3COc4ccccc4N(C)C3=O)c2C1 (stereo partly drawn) [Example 74, 5-ethyl-N-((S)-5-methyl-4-oxo-2,3,4,5-tetrahydrobenzo[b][1,4]oxazepin-3-yl)-4,5,6,7-tetrahydro-2H-indazole-3-carboxamide]",7.89

# Same assay, conditions: Table 5; apparent Ki (Morrison tight-binding fit); 50 nM RIP1 kinase domain, 50 uM ATP, 2 hours incubation; read-out: Ki
row,Structure (SMILES),pKi
1,"CN1C(=O)[C@@H](NC(=O)c2nc3n(n2)[C@@H](c2ccccc2)CCC3)COc2ccccc21 (single isomer, unassigned) [Example 790]",6.83
2,"Cc1cc2n(n1)CC[C@H](NC(=O)c1cc3c(-c4ccccc4)cccc3cn1)C(=O)N2C (racemic) [Example 702, 5-phenyl-N-[rac-(6S)-2,4-dimethyl-5-oxo-7,8-dihydro-6H-pyrazolo[1,5-a][1,3]diazepin-6-yl]isoquinoline-3-carboxamide]",7.48

# Same assay, conditions: human RIP1 kinase domain (2-375), 50 uM ATP, 2 hours incubation, Transcreener ADP assay; read-out: RIP1 Ki
row,Structure (SMILES),pKi
1,"CN1C(=O)[C@@H](NC(=O)c2ncn(Cc3ccccc3)n2)CCn2nc([C@H]3CC3(F)F)cc21 [Example 148, 1-benzyl-N-((S)-2-((R)-2,2-difluorocyclopropyl)-4-methyl-5-oxo-5,6,7,8-tetrahydro-4H-pyrazolo[1,5-a][1,3]diazepin-6-yl)-1H-1,2,4-triazole-3-carboxamide]",7.40
2,"CN1C(=O)[C@@H](NC(=O)c2ncn3ccc(C(F)(F)F)nc23)COc2ccccc21 [Example 193, (S)—N-(5-methyl-4-oxo-2,3,4,5-tetrahydrobenzo[b][1,4]oxazepin-3-yl)-2-(trifluoromethyl)imidazo[1,5-a]pyrimidine-8-carboxamide]",7.24

# Same assay, conditions: tight-binding apparent inhibition constant; human RIP1 kinase domain (2-375) 50 nM, 50 uM ATP, 2 hours; read-out: Ki
row,Structure (SMILES),pKi
1,CN1C(=O)[C@@H](NC(=O)c2ncc3c(n2)C2(CCCC2)OC3)COc2ccccc21 [Example 482],8.24
2,"Cc1cc2n(n1)CC[C@H](NC(=O)c1ncn(Cc3ccc(Cl)cc3Cl)n1)C(=O)N2C [Example 473, 1-[(2,4-dichlorophenyl)methyl]-N-[(6S)-2,4-dimethyl-5-oxo-7,8-dihydro-6H-pyrazolo[1,5-a][1,3]diazepin-6-yl]-1,2,4-triazole-3-carboxamide]",8.11
3,"CN1C(=O)[C@@H](NC(=O)c2ncn(Cc3ccc(F)cc3F)n2)CCn2nccc21 (racemic) [Example 340, 1-[(2,4-difluorophenyl)methyl]-N-[rac-(6S)-4-methyl-5-oxo-7,8-dihydro-6H-pyrazolo[1,5-a][1,3]diazepin-6-yl]-1,2,4-triazole-3-carboxamide]",7.89
4,"CN1C(=O)[C@@H](NC(=O)c2nc3c(-c4ccccc4)nccn3n2)COc2ccccc21 [Example 442, (S)—N-(5-methyl-4-oxo-2,3,4,5-tetrahydrobenzo[b][1,4]oxazepin-3-yl)-8-phenyl-[1,2,4]triazolo[1,5-a]pyrazine-2-carboxamide]",8.11
5,"Cc1cc2n(n1)CC[C@H](NC(=O)c1ncn(CC3CCCOC3)n1)C(=O)N2C (stereo partly drawn) [Example 475, N-(6S)-2,4-dimethyl-5-oxo-7,8-dihydro-6H-pyrazolo[1,5-a][1,3]diazepin-6-yl-1-(tetrahydropyran-3-ylmethyl)-1,2,4-triazole-3-carboxamide]",6.44
6,"CN1C(=O)[C@@H](NC(=O)c2nnc(Cc3cccc(F)c3F)[nH]2)CCn2nc(C3CC3)cc21 [Example 514, 5-[(2,3-difluorophenyl)methyl]-N-(6 S)-2-cyclopropyl-4-methyl-5-oxo-7,8-dihydro-6H-pyrazolo[1,5-a][1,3]diazepin-6-yl-4H-1,2,4-triazole-3-carboxamide]",7.77
